PMC11302729, “Repurposing Hsp90 inhibitors as antimicrobials targeting two-component systems identifies compounds leading to loss of bacterial membrane integrity” (Microbiology Spectrum, 2024)
Values after ≈ are worked out from the molar mass of the structure shown. Values joined by “and” are separate entries in the source; they are usually repeats but may differ in a detail not shown here. Equal values may be shown once.

test system: Staphylococcus aureus str. Newman; experiment: Minimal inhibitory concentration (microdilution) against S. aureus; format: cell-based; conditions: Staphylococcus aureus, NEWMAN; Fig 2
Experimental: (§1) Staphylococcus aureus str. Newman, Enterococcus faecalis vanA (strain E0155), Enterococcus faecium vanA (strain E1654), Escherichia coli ATCC 25922, Escherichia coli D21f2 with a truncated LPS barrier, Escherichia coli JW5503 (ΔtolC) ([49]), Pseudomonas aeruginosa ATCC 27853, and Pasteurella haemolytica ATCC 29701 were grown in Mueller-Hinton Broth (MHB) (Oxoid, Basingstoke, UK) and incubated at 37°C.
(§2) The minimal inhibitory concentration was determined using the microdilution method following the guidelines of the European Committee on Antimicrobial Susceptibility Testing ([50]). Briefly, a series of twofold dilutions in MHB of each compound were made in a 96-well plate, with final concentrations ranging from 50 to 0.39 µg/mL in 100 µL final volume per well. A hundred microliters of 1:100 dilution of an overnight culture of the correspondent bacteria in MHB was added to each well. Plates were incubated for 18 hours at 37°C. MIC was recorded as the lowest concentration where no growth was detected as measured by optical density at 600 nm (OD600) using Spectramax M5 (Molecular Devices LLC, San Jose, CA, USA). […] Wells containing bacteria with or without 1% DMSO and medium alone were included as controls in every plate.

Row | SMILES | MIC [µg/mL]
1 | CCOc1ccc(-c2[nH]nc(C(F)(F)F)c2-c2ccccc2)c(O)c1 [DPP-3] | 6.25
2 | COc1ccc(-c2c(C(F)(F)F)n[nH]c2-c2ccc(OCc3ccccc3)cc2O)cc1 [DPP-15] | 3.12
3 | Oc1cc(OCc2ccccc2)ccc1-c1[nH]nc(C(F)(F)F)c1-c1ccccc1 [DPP-4] | 1.56

same assay, conditions: Staphylococcus aureus, NEWMAN; Fig 2, value in parentheses

Row | SMILES | MIC [µM]
4 | CCOc1ccc(-c2[nH]nc(C(F)(F)F)c2-c2ccccc2)c(O)c1 [DPP-3] | 17.9
5 | COc1ccc(-c2c(C(F)(F)F)n[nH]c2-c2ccc(OCc3ccccc3)cc2O)cc1 [DPP-15] | 7.09
6 | Oc1cc(OCc2ccccc2)ccc1-c1[nH]nc(C(F)(F)F)c1-c1ccccc1 [DPP-4] | 3.8

same assay, conditions: Table ST3

Row | SMILES | MIC S. aureus [µg/mL]
7 | CCOc1ccc(-c2[nH]nc(C(F)(F)F)c2-c2ccccc2)c(O)c1 [DPP-3] | 6.25 (≈ 17.9 µM)
8 | COc1ccc(-c2c(C(F)(F)F)n[nH]c2-c2ccc(OCc3ccccc3)cc2O)cc1 [DPP-15] | 3.12 (≈ 7.08 µM)
9 | Oc1cc(OCc2ccccc2)ccc1-c1[nH]nc(C(F)(F)F)c1-c1ccccc1 [DPP-4] | 1.56 (≈ 3.8 µM)

same assay, conditions: Table ST3, value in parentheses

Row | SMILES | MIC [µM]
10 | CCOc1ccc(-c2[nH]nc(C(F)(F)F)c2-c2ccccc2)c(O)c1 [DPP-3] | 17.86
11 | COc1ccc(-c2c(C(F)(F)F)n[nH]c2-c2ccc(OCc3ccccc3)cc2O)cc1 [DPP-15] | 7.09
12 | Oc1cc(OCc2ccccc2)ccc1-c1[nH]nc(C(F)(F)F)c1-c1ccccc1 [DPP-4] | 3.80

test system: not listed separately; experiment: in vitro; format: cell-based; conditions: human
Experimental: (§3) HEK293 cells and the human hepatocellular carcinoma cells (HepG2) were routinely cultured in 75-cm^2 culture flasks (Corning Incorporated) on high-glucose Dulbecco’s modified Eagle medium (DMEM) containing glutaMax and phenol red (Gibco) supplemented with 1% penicillin/streptomycin (Gibco) and 10% fetal bovine serum (FBS) (Gibco). Cells were maintained at 37°C and 5% CO2.
(§4) Cytotoxicity assays with HEK293 and HepG2 cells were performed in 96-well plates seeded with 5 × 10^4 cells/well and incubated for 24 hours to reach 80%–90% confluency. Exterior wells were filled with only medium to prevent evaporation. Culture medium was removed from the cells, and 100 µL of exposure medium [high-glucose DMEM without phenol red (Gibco)] was added to avoid a potential interaction between FBS components or antibiotics and tested compounds. A twofold dilution series of compounds in exposure medium (range 100–3.2 μg/mL) was made in a separate 96-well plate, and 100 µL of each of these dilutions was added to the assay plates for 24 hours at 37°C in the presence of 5% CO2. Control wells contained cells with DMEM, DMEM + 1% DMSO (vehicle control), or DMEM + 20% DMSO. Wells without cells were also included as negative control. After exposure, the medium was replaced with 100 µL 10% Alamar Blue (Invitrogen) in exposure medium. After 45 min incubation at 37°C and 5% CO2, fluorescence was measured on a Spectramax M5 plate reader at λex = 541 nm, λem = 590 nm. Cell viability compared with the vehicle control was calculated, and inhibition curves for each compound were fitted (non-linear curve fit, four variables, bottom constrained = 0) in Prism 9 (GraphPad Software, San Diego, USA).

Row | SMILES | CC50 at 24 h
13 | CCOc1ccc(-c2[nH]nc(C(F)(F)F)c2-c2ccccc2)c(O)c1 [DPP-3] | 25.6 µg/mL and 76.5 µM
14 | COc1ccc(-c2c(C(F)(F)F)n[nH]c2-c2ccc(OCc3ccccc3)cc2O)cc1 [DPP-15] | 9.64 µg/mL and 21.9 µM
15 | Oc1cc(OCc2ccccc2)ccc1-c1[nH]nc(C(F)(F)F)c1-c1ccccc1 [DPP-4] | 7.26 µg/mL and 17.7 µM

test system: HEK293 cells; experiment: in vitro; format: cell-based; conditions: LC50/MIC (HEK293 / S. aureus)
Experimental: as §3, §4

Row | SMILES | Selectivity Index
16 | CCOc1ccc(-c2[nH]nc(C(F)(F)F)c2-c2ccccc2)c(O)c1 [DPP-3] | 4.1
17 | COc1ccc(-c2c(C(F)(F)F)n[nH]c2-c2ccc(OCc3ccccc3)cc2O)cc1 [DPP-15] | 3.10
18 | Oc1cc(OCc2ccccc2)ccc1-c1[nH]nc(C(F)(F)F)c1-c1ccccc1 [DPP-4] | 4.65

test system: Enterococcus faecium vanA (strain E1654); experiment: MIC (microdilution) against E. faecium; format: cell-based; conditions: Enterococcus faecium, read-out: MIC E. faecium
Experimental: as §1, §2

Row | SMILES | MIC [µg/mL]
19 | CCOc1ccc(-c2[nH]nc(C(F)(F)F)c2-c2ccccc2)c(O)c1 [DPP-3] | > 250
20 | COc1ccc(-c2c(C(F)(F)F)n[nH]c2-c2ccc(OCc3ccccc3)cc2O)cc1 [DPP-15] | 1.56 (≈ 3.54 µM)
21 | Oc1cc(OCc2ccccc2)ccc1-c1[nH]nc(C(F)(F)F)c1-c1ccccc1 [DPP-4] | 3.12 (≈ 7.6 µM)

test system: Enterococcus faecalis vanA (strain E0155); experiment: MIC (microdilution) against E. faecalis; format: cell-based; conditions: Enterococcus faecalis, read-out: MIC E. faecalis
Experimental: as §1, §2

Row | SMILES | MIC [µg/mL]
22 | CCOc1ccc(-c2[nH]nc(C(F)(F)F)c2-c2ccccc2)c(O)c1 [DPP-3] | > 250
23 | COc1ccc(-c2c(C(F)(F)F)n[nH]c2-c2ccc(OCc3ccccc3)cc2O)cc1 [DPP-15] | 1.56 (≈ 3.54 µM)
24 | Oc1cc(OCc2ccccc2)ccc1-c1[nH]nc(C(F)(F)F)c1-c1ccccc1 [DPP-4] | 3.12 (≈ 7.6 µM)

test system: Pasteurella haemolytica ATCC 29701; experiment: MIC (microdilution) against P. haemolytica; format: cell-based; conditions: Mannheimia haemolytica, ATCC29701, read-out: MIC P. haemolytica, Table ST1
Experimental: as §1, §2

Row | SMILES | MIC [µg/mL]
25 | CCOc1ccc(-c2[nH]nc(C(F)(F)F)c2-c2ccccc2)c(O)c1 [DPP-3] | 50 (≈ 144 µM)
26 | COc1ccc(-c2c(C(F)(F)F)n[nH]c2-c2ccc(OCc3ccccc3)cc2O)cc1 [DPP-15] | > 250
27 | Oc1cc(OCc2ccccc2)ccc1-c1[nH]nc(C(F)(F)F)c1-c1ccccc1 [DPP-4] | 125 (≈ 305 µM)

test system: Pseudomonas aeruginosa ATCC 27853; experiment: MIC (microdilution) against P. aeruginosa; format: cell-based; conditions: Pseudomonas aeruginosa, ATCC27853; Table ST1; read-out: MIC P. aeruginosa
Experimental: as §1, §2

Row | SMILES | MIC [µg/mL]
28 | CCOc1ccc(-c2[nH]nc(C(F)(F)F)c2-c2ccccc2)c(O)c1 [DPP-3] | > 250
29 | COc1ccc(-c2c(C(F)(F)F)n[nH]c2-c2ccc(OCc3ccccc3)cc2O)cc1 [DPP-15] | > 250
30 | Oc1cc(OCc2ccccc2)ccc1-c1[nH]nc(C(F)(F)F)c1-c1ccccc1 [DPP-4] | > 250

test system: Escherichia coli ATCC 25922; experiment: MIC (microdilution) against E. coli; format: cell-based; conditions: Escherichia coli, ATCC25922; Table ST1; read-out: MIC E. coli
Experimental: as §1, §2

Row | SMILES | MIC [µg/mL]
31 | CCOc1ccc(-c2[nH]nc(C(F)(F)F)c2-c2ccccc2)c(O)c1 [DPP-3] | > 250
32 | COc1ccc(-c2c(C(F)(F)F)n[nH]c2-c2ccc(OCc3ccccc3)cc2O)cc1 [DPP-15] | > 250
33 | Oc1cc(OCc2ccccc2)ccc1-c1[nH]nc(C(F)(F)F)c1-c1ccccc1 [DPP-4] | > 250

test system: Escherichia coli JW5503 (ΔtolC); experiment: MIC (microdilution) against E. coli JW5503; format: cell-based; conditions: Escherichia coli, read-out: MIC E. coli JW5503
Excerpt: (§5) We also tested the inhibitory activity of compounds in two different E. coli mutants: (i) E. coli JW5503 that lacks TolC efflux pumps and (ii) E. coli D21f2 that has a defective LPS inner core increasing permeability of the outer membrane. E. coli D21f2 has a slightly higher susceptibility to DPP compounds than E. coli ATCC25922.
as §1, §2

Row | SMILES | MIC [µg/mL]
34 | CCOc1ccc(-c2[nH]nc(C(F)(F)F)c2-c2ccccc2)c(O)c1 [DPP-3] | 1.56 (≈ 4.48 µM)
35 | COc1ccc(-c2c(C(F)(F)F)n[nH]c2-c2ccc(OCc3ccccc3)cc2O)cc1 [DPP-15] | 3.12 (≈ 7.08 µM)
36 | Oc1cc(OCc2ccccc2)ccc1-c1[nH]nc(C(F)(F)F)c1-c1ccccc1 [DPP-4] | 6.25 (≈ 15.2 µM)

test system: Escherichia coli D21f2 with a truncated LPS barrier; experiment: MIC (microdilution) against E. coli D21f2; format: cell-based; conditions: read-out: MIC E coli D21f2
Excerpt: as §5, §1, §2

Row | SMILES | MIC [µg/mL]
37 | Oc1cc(OCc2ccccc2)ccc1-c1[nH]nc(C(F)(F)F)c1-c1ccccc1 [DPP-4] | > 50

test system: S. aureus str. Newman; experiment: Membrane permeability using SYTOX-Green, flow cytometry; format: cell-based; conditions: 0.5× MIC, 5 min exposure
Experimental: S. aureus str. Newman was grown to exponential phase (OD600 = 0.4) in MHB media. […] Nisin (Sigma-Aldrich) and novobiocin (Sigma-Aldrich) were used as positive and negative controls for membrane permeabilization, and stained and unstained untreated controls were also included in each assay. After exposure, samples were centrifuged at 4,000 r.p.m. for 5 min and resuspended in PBS. Bacteria were dyed by adding the fluorescent nuclear stain SYTOX Green (Molecular Probes, Invitrogen) to a final concentration of 0.5 µM and incubating for 5 min in the dark. Samples were centrifuged again and resuspended with PBS to remove unbound stain. Three hundred microliters of each sample was transferred to a clean well in a 96-well clear-bottom plate (Corning Incorporated). Fluorescence was measured in CytoFLEX flow cytometer (Beckman Coulter, Brea, CA, USA) using the green (FITC) channel with the excitation wavelength at 488 nm. Overlay histograms were created with CytExpert Software (Beckman Coulter, Brea, CA, USA).

Row | SMILES | % FITC stained bacteria 0.5 xMIC [%]
38 | CCOc1ccc(-c2[nH]nc(C(F)(F)F)c2-c2ccccc2)c(O)c1 [DPP-3] | 35.78
39 | COc1ccc(-c2c(C(F)(F)F)n[nH]c2-c2ccc(OCc3ccccc3)cc2O)cc1 [DPP-15] | 9.29
40 | Oc1cc(OCc2ccccc2)ccc1-c1[nH]nc(C(F)(F)F)c1-c1ccccc1 [DPP-4] | 7.94

same assay, conditions: 1× MIC, 5 min exposure

Row | SMILES | % FITC stained bacteria 1 xMIC [%] | Loss of membrane integrity
41 | CCOc1ccc(-c2[nH]nc(C(F)(F)F)c2-c2ccccc2)c(O)c1 [DPP-3] | 49.41 | 
42 | COc1ccc(-c2c(C(F)(F)F)n[nH]c2-c2ccc(OCc3ccccc3)cc2O)cc1 [DPP-15] | 13.68 | did not cause significant loss of membrane integrity
43 | Oc1cc(OCc2ccccc2)ccc1-c1[nH]nc(C(F)(F)F)c1-c1ccccc1 [DPP-4] | 14.15 | did not cause significant loss of membrane integrity

same assay, conditions: 2× MIC, 5 min exposure

Row | SMILES | % FITC stained bacteria 2 xMIC [%]
44 | CCOc1ccc(-c2[nH]nc(C(F)(F)F)c2-c2ccccc2)c(O)c1 [DPP-3] | 58.28
45 | COc1ccc(-c2c(C(F)(F)F)n[nH]c2-c2ccc(OCc3ccccc3)cc2O)cc1 [DPP-15] | 18.42
46 | Oc1cc(OCc2ccccc2)ccc1-c1[nH]nc(C(F)(F)F)c1-c1ccccc1 [DPP-4] | 19.78

same assay, conditions: if considered to cause membrane damage to S. aureus

Row | SMILES | Membrane damage
47 | CCOc1ccc(-c2[nH]nc(C(F)(F)F)c2-c2ccccc2)c(O)c1 [DPP-3] | YES

test system: sheep red blood cells; experiment: Haemolysis assay; format: cell-based; conditions: if considered to cause haemolysis to red blood cells
Experimental: The hemolysis assay was adapted from the study by Evans et al. ([65]). Briefly, sheep RBC 10% washed pooled cells in PBS (Rockland Immunochemicals, Limerick, PA, USA) were diluted 1:5 to give a final concentration of 2% RBCs in PBS. […] A non-treated control, 1% DMSO (vehicle control), and complete cell lysis control (Triton-X 2%) were included in each assay. After exposure samples were centrifuged at 4°C at 1,000 g for 15 min and 100 µL of supernatant transferred to a clean well in a 96-well, clear, flat-bottom plate (Corning Incorporated). Released hemoglobin was measured by absorption at 540 nm using a Spectramax M5 plate reader. The experiments were performed in quadruplicate. The percentage of hemolysis was calculated as follows:
Hemolysis=A540nm,testcondition−A540nm,DMSOcontrol/A540nm,TritonXControl−A540nm,DMSOcontrol

Row | SMILES | Haemolysis
48 | CCOc1ccc(-c2[nH]nc(C(F)(F)F)c2-c2ccccc2)c(O)c1 [DPP-3] | YES
